From ChEMBL document CHEMBL3638749, “Bicyclic thiazole compounds” (2015)

Each compound was assayed against TRAF2 and NCK-interacting protein kinase (Homo sapiens, UniProt Q9UKE5) (assay: Kinase Assay: The kinase assays were conducted in a 20 μl volume using 384-well plates (Greiner). The reaction mixture consists of compound or vehicle (1% DMSO), 0.08 ng/μl TNIK_N, 1 μM FITC-labeled substrate peptides, including ε-aminocaproic acid and 7 amino acids (described as SEQ ID NO. 3 in "Kinase assay of TEST EXAMPLE 1" of WO 2010/064111(P.31)), 20 mM Hepes, pH 7.5, 0.01% Triton X-100, 5 mM MgCl2, 25 μM ATP and 2 mM DTT. As blank, TNIK_N was excluded from the reaction mixture of vehicle (1% DMSO). The kinase reaction was carried out 1 h at room temperature and terminated by addition of 60 μl of the termination buffer (127 mM Hepes, pH 7.5, 26.7 mM EDTA, 0.01% Triton X-100, 1% DMSO and 0.13% Coating Reagent 3 (Caliper Life Sciences)). The amount of unphosphorylated and phosphorylated FITC-labeled substrate peptides was detected by Mobility Shift Micro Fluidic Technology (Caliper LC3000 System, Caliper Life Sciences).).
Sequence of TRAF2 and NCK-interacting protein kinase (Q9UKE5 whole entry): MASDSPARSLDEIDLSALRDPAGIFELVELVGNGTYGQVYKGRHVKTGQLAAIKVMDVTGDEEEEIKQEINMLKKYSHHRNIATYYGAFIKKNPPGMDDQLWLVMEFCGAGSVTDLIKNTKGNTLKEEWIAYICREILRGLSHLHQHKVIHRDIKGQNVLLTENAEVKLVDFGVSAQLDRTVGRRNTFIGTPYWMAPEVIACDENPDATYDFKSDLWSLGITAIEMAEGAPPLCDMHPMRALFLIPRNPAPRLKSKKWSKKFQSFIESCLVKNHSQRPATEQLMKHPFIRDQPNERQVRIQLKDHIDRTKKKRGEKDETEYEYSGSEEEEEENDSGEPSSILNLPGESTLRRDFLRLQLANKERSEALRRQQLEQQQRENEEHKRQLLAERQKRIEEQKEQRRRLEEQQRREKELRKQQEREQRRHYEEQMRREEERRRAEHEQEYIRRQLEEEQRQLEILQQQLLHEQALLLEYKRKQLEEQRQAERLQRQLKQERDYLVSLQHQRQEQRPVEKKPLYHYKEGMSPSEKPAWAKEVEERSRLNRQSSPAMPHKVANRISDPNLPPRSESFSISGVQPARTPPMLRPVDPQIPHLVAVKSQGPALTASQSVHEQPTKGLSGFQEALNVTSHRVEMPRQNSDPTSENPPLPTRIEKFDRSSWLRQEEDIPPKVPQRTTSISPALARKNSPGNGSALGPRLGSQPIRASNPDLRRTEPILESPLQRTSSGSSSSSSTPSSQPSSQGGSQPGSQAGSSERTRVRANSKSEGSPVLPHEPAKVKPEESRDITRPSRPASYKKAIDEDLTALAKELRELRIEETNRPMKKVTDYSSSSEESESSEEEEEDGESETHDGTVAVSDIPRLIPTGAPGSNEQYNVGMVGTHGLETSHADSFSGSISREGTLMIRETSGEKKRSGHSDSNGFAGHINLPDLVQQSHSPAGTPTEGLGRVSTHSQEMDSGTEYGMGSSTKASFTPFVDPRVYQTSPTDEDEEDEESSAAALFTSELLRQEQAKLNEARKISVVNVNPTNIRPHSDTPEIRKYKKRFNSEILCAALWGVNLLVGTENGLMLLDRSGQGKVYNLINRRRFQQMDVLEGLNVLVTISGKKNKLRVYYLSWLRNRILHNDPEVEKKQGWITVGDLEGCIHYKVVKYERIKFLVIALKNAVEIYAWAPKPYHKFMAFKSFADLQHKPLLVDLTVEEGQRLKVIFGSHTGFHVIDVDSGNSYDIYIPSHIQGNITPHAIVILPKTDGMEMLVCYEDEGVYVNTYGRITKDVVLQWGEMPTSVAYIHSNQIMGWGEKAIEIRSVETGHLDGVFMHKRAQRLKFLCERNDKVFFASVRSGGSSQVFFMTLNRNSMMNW

SMILES	IC50
CC#CC(=O)Nc1sc(Nc2ccc3ccccc3c2)nc1C(N)=O	4.4 nM
NC(=O)c1nc(Nc2ccc3ccccc3c2)sc1NC(=O)c1ccc(Cn2ccnc2[N+](=O)[O-])cc1	9.5 nM
NC(=O)c1nc(Nc2ccc3cc(F)ccc3c2)sc1NC(=O)c1ccc(NCCO)cc1	22.5 nM
